# Patent US10385103B2, “Cell-permeable (ICP)-SOCS3 recombinant protein and uses thereof” (CELLIVERY THERAPEUTICS, INC., priority 2014, dated 2019)
# Tested on: RAW 264.7 cells
# Assay: Quantitative cell-permeability of FITC-labeled aMTD- or rPeptide-fused CRA recombinant proteins (flow cytometry)
# Format: cell-based
# Conditions: for Relative Ratio to aMTD AVE: cell-permeability of rPeptide-fused CRA recombinant protein relative to average of 240 aMTDs
# How it was run: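 RAW 264.7 cells were exposed to 10 μM FITC-labeled recombinant proteins, consisting of a non-functional cargo fused to aMTD or rPeptide sequences, for 1 hour at 37° C. Cells were washed three times in cold PBS and treated with 0.25% tripsin/EDTA for 20 minutes at 37° C. to strip surface-bound protein, then uptake was measured by flow cytometry.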
# [1] = 10 μM FITC-labeled, 1 hour, 37° C., RAW 264.7 cells
# [2] = cell-permeability of aMTD-fused CRA recombinant protein relative to negative control (A: rP38)
# [3] = cell-permeability of aMTD-fused CRA recombinant protein relative to reference CPP (B: MTM12)
# [4] = cell-permeability of aMTD-fused CRA recombinant protein relative to reference CPP (C: MTD85)
# [5] = cell-permeability relative to negative control rP38 (A type), aMTD-fused CRA recombinant protein, 10 μM FITC-labeled, 1 hour, 37° C., RAW 264.7 cells
# [6] = cell-permeability relative to reference CPP MTD85 (C type), aMTD-fused CRA recombinant protein, 10 μM FITC-labeled, 1 hour, 37° C., RAW 264.7 cells
# [7] = cell-permeability relative to reference CPP MTM12 (B type), aMTD-fused CRA recombinant protein, 10 μM FITC-labeled, 1 hour, 37° C., RAW 264.7 cells
# [8] = relative cell-permeability of aMTD vs reference A (not defined)
# [9] = relative cell-permeability of aMTD vs reference CPP B: MTM12
# [10] = relative cell-permeability of aMTD vs reference CPP C: MTD85
substance,measurement,setting,value
17 (GGCSAPQTTCSN; Amino acid Sequence of rPeptide ID 17) [compound 17],Relative Ratio to aMTD AVE,[1],0.08
829 (AALALVAPVIVP; Amino acid Sequence of aMTD829) [compound 829],Relative Ratio (Fold) A,[2],44.8 Fold
same,Relative Ratio (Fold) B,[3],30.0 Fold
same,Relative Ratio (Fold) C,[4],15.2 Fold
522 (ALLVIAVPAVAP; Amino acid Sequence of aMTD522) [compound 522],Relative Ratio (Fold) A,[2],22.7 Fold
same,Relative Ratio (Fold) B,[3],15.2 Fold
same,Relative Ratio (Fold) C,[4],7.7 Fold
323 (IVAVALPVALAP; Amino acid Sequence of aMTD323) [compound 323],Relative Ratio (Fold) A,[2],19.1 Fold
same,Relative Ratio (Fold) B,[3],12.8 Fold
same,Relative Ratio (Fold) C,[4],6.4 Fold
786 (LVAIAPLAVLAP; Amino acid Sequence of aMTD786) [compound 786],Relative Ratio (Fold) A,[2],21.2 Fold
same,Relative Ratio (Fold) B,[3],14.2 Fold
same,Relative Ratio (Fold) C,[4],7.2 Fold
705 (IVAVALLPALAP; Amino acid Sequence of aMTD705) [compound 705],Relative Ratio (Fold) A,[2],29.6 Fold
same,Relative Ratio (Fold) B,[3],19.1 Fold
same,Relative Ratio (Fold) C,[4],9.7 Fold
583 (AVILALAPIVAP; Amino acid Sequence of aMTD583) [compound 583],Relative Ratio (Fold) A,[5],7.3 Fold
same,Relative Ratio (Fold) C,[6],2.4 Fold
same,Relative Ratio (Fold) B,[7],4.8 Fold
501 (VIVALAVPALAP; Amino acid Sequence of aMTD501) [compound 501],Relative Ratio (Fold) A,[2],21.5 Fold
same,Relative Ratio (Fold) B,[3],14.4 Fold
same,Relative Ratio (Fold) C,[4],7.2 Fold
904 (AVLAVVAPVVAP; Amino acid Sequence of aMTD904) [compound 904],Relative Ratio (Fold) A,[2],106.7 Fold
same,Relative Ratio (Fold) B,[3],70.8 Fold
same,Relative Ratio (Fold) C,[4],35.8 Fold
same,Relative Ratio (Fold) A,[8],105.7 Fold
484 (LAVVLAAPAIVP; Amino acid Sequence of aMTD484) [compound 484],Relative Ratio (Fold) A,[2],15.8 Fold
same,Relative Ratio (Fold) B,[3],10.4 Fold
same,Relative Ratio (Fold) C,[4],5.3 Fold
605 (VIAAVLAPVAVP; Amino acid Sequence of aMTD605) [compound 605],Relative Ratio (Fold) A,[2],11.0 Fold
same,Relative Ratio (Fold) B,[3],7.4 Fold
same,Relative Ratio (Fold) C,[4],3.7 Fold
242 (AALLVPALVAAP; Amino acid Sequence of aMTD242) [compound 242],Relative Ratio (Fold) A,[2],14.6 Fold
same,Relative Ratio (Fold) B,[3],9.7 Fold
same,Relative Ratio (Fold) C,[4],4.9 Fold
623 (VAAAIALPAIVP; Amino acid Sequence of aMTD623) [compound 623],Relative Ratio (Fold) A,[5],0.8 Fold
same,Relative Ratio (Fold) C,[6],0.3 Fold
same,Relative Ratio (Fold) B,[7],0.6 Fold
84 (AAVAAPLLLALP; Amino acid Sequence of aMTD84) [compound 84],Relative Ratio (Fold) A,[5],1.5 Fold
same,Relative Ratio (Fold) C,[6],0.5 Fold
same,Relative Ratio (Fold) B,[7],1.0 Fold
692 (PAPLPPVVILAV; Amino acid Sequence of rPeptide ID 692) [compound 692],Relative Ratio to aMTD AVE,[1],0.74
4 (ALALLPVAALAP; Amino acid Sequence of aMTD4) [compound 4],Relative Ratio (Fold) A,[5],2.0 Fold
same,Relative Ratio (Fold) C,[6],0.7 Fold
same,Relative Ratio (Fold) B,[7],1.3 Fold
463 (AVAILVPLLAAP; Amino acid Sequence of aMTD463) [compound 463],Relative Ratio (Fold) A,[2],17.6 Fold
same,Relative Ratio (Fold) B,[3],11.7 Fold
same,Relative Ratio (Fold) C,[4],5.9 Fold
601 (AAILIAVPIAAP; Amino acid Sequence of aMTD601) [compound 601],Relative Ratio (Fold) A,[2],26.8 Fold
same,Relative Ratio (Fold) B,[3],17.9 Fold
same,Relative Ratio (Fold) C,[4],9.0 Fold
784 (VAALPAVALVVP; Amino acid Sequence of aMTD784) [compound 784],Relative Ratio (Fold) A,[5],7.1 Fold
same,Relative Ratio (Fold) C,[6],2.4 Fold
same,Relative Ratio (Fold) B,[7],4.7 Fold
284 (ALIAPAVALIVP; Amino acid Sequence of aMTD284) [compound 284],Relative Ratio (Fold) A,[5],2.8 Fold
same,Relative Ratio (Fold) C,[6],0.9 Fold
same,Relative Ratio (Fold) B,[7],1.8 Fold
425 (AVVAIAPVLALP; Amino acid Sequence of aMTD425) [compound 425],Relative Ratio (Fold) A,[2],9.4 Fold
same,Relative Ratio (Fold) B,[3],6.3 Fold
same,Relative Ratio (Fold) C,[4],3.2 Fold
68 (VAPVLPAAPLVP; Amino acid Sequence of rPeptide ID 68) [compound 68],Relative Ratio to aMTD AVE,[1],0.32
264 (LAAAPVVIVIAP; Amino acid Sequence of aMTD264) [compound 264],Relative Ratio (Fold) A,[2],18.2 Fold
same,Relative Ratio (Fold) B,[3],12.1 Fold
same,Relative Ratio (Fold) C,[4],6.1 Fold
same,Relative Ratio (Fold) A,[8],18.2 Fold
same,Relative Ratio (Fold) B,[9],12.1 Fold
same,Relative Ratio (Fold) C,[10],6.1 Fold
67 (LDAEVPLADDVP; Amino acid Sequence of rPeptide ID 67) [compound 67],Relative Ratio to aMTD AVE,[1],0.08
same,Relative Ratio (Fold) A,relative cell-permeability of rPeptide vs reference A (not defined),1.5 Fold
same,Relative Ratio (Fold) B,relative cell-permeability of rPeptide vs reference CPP B: MTM12,0.9 Fold
same,Relative Ratio (Fold) C,relative cell-permeability of rPeptide vs reference CPP C: MTD85,0.5 Fold
405 (LAAAVIPVAILP; Amino acid Sequence of aMTD405) [compound 405],Relative Ratio (Fold) A,[2],22.2 Fold
same,Relative Ratio (Fold) B,[3],14.8 Fold
same,Relative Ratio (Fold) C,[4],7.5 Fold
564 (VAIALIVPALAP; Amino acid Sequence of aMTD564) [compound 564],Relative Ratio (Fold) A,[2],43.6 Fold
same,Relative Ratio (Fold) B,[3],29.1 Fold
same,Relative Ratio (Fold) C,[4],14.7 Fold
604 (VALIAVAPAVVP; Amino acid Sequence of aMTD604) [compound 604],Relative Ratio (Fold) A,[5],4.3 Fold
same,Relative Ratio (Fold) C,[6],1.5 Fold
same,Relative Ratio (Fold) B,[7],2.5 Fold
827 (IAAVLAAPALVP; Amino acid Sequence of aMTD827) [compound 827],Relative Ratio (Fold) A,[2],43.0 Fold
same,Relative Ratio (Fold) B,[3],28.8 Fold
same,Relative Ratio (Fold) C,[4],14.6 Fold
13 (AAALVPVVALLP; Amino acid Sequence of aMTD13) [compound 13],Relative Ratio (Fold) A,[5],7.0 Fold
same,Relative Ratio (Fold) C,[6],2.4 Fold
same,Relative Ratio (Fold) B,[7],4.7 Fold
911 (VALALPAVVVAP; Amino acid Sequence of aMTD911) [compound 911],Relative Ratio (Fold) A,[2],84.8 Fold
same,Relative Ratio (Fold) B,[3],56.8 Fold
same,Relative Ratio (Fold) C,[4],28.7 Fold
same,Relative Ratio (Fold) A,[8],84.8 Fold
same,Relative Ratio (Fold) B,[9],56.8 Fold
same,Relative Ratio (Fold) C,[10],28.7 Fold
343 (IVAVALPALVAP; Amino acid Sequence of aMTD343) [compound 343],Relative Ratio (Fold) A,[2],19.4 Fold
same,Relative Ratio (Fold) B,[3],12.9 Fold
same,Relative Ratio (Fold) C,[4],6.5 Fold
322 (VVAIVLPALAAP; Amino acid Sequence of aMTD322) [compound 322],Relative Ratio (Fold) A,[2],17.6 Fold
same,Relative Ratio (Fold) B,[3],11.7 Fold
same,Relative Ratio (Fold) C,[4],5.9 Fold
849 (AVILLAPLIAAP; Amino acid Sequence of aMTD849) [compound 849],Relative Ratio (Fold) A,[2],8.3 Fold
same,Relative Ratio (Fold) B,[3],4.8 Fold
same,Relative Ratio (Fold) C,[4],2.9 Fold
401 (AALAVIPAAILP; Amino acid Sequence of aMTD401) [compound 401],Relative Ratio (Fold) A,[2],10.6 Fold
same,Relative Ratio (Fold) B,[3],7.1 Fold
same,Relative Ratio (Fold) C,[4],3.6 Fold
693 (AAPVLPVAVPIV; Amino acid Sequence of rPeptide ID 693) [compound 693],Relative Ratio to aMTD AVE,[1],0.13
883 (LAIVPAAIAALP; Amino acid Sequence of aMTD883) [compound 883],Relative Ratio (Fold) A,[5],3.0 Fold
same,Relative Ratio (Fold) C,[6],1.0 Fold
same,Relative Ratio (Fold) B,[7],2.0 Fold
124 (IAVALPALIAAP; Amino acid Sequence of aMTD124) [compound 124],Relative Ratio (Fold) A,[2],43.6 Fold
same,Relative Ratio (Fold) B,[3],29.0 Fold
same,Relative Ratio (Fold) C,[4],14.7 Fold
645 (ALAVVALPAIVP; Amino acid Sequence of aMTD645) [compound 645],Relative Ratio (Fold) A,[5],4.3 Fold
same,Relative Ratio (Fold) C,[6],1.5 Fold
same,Relative Ratio (Fold) B,[7],2.9 Fold
444 (LAAALVPVALVP; Amino acid Sequence of aMTD444) [compound 444],Relative Ratio (Fold) A,[2],8.1 Fold
same,Relative Ratio (Fold) B,[3],5.4 Fold
same,Relative Ratio (Fold) C,[4],2.7 Fold
483 (ILAAAIIPAALP; Amino acid Sequence of aMTD483) [compound 483],Relative Ratio (Fold) A,[5],6.8 Fold
same,Relative Ratio (Fold) C,[6],2.3 Fold
same,Relative Ratio (Fold) B,[7],4.5 Fold
482 (ILAVAAIPVAVP; Amino acid Sequence of aMTD482) [compound 482],Relative Ratio (Fold) A,[2],15.8 Fold
same,Relative Ratio (Fold) B,[3],10.6 Fold
same,Relative Ratio (Fold) C,[4],5.3 Fold
301 (VIAAPVLAVLAP; Amino acid Sequence of aMTD301) [compound 301],Relative Ratio (Fold) A,[5],6.0 Fold
same,Relative Ratio (Fold) C,[6],2.0 Fold
same,Relative Ratio (Fold) B,[7],4.0 Fold
